# Test results as given in PMC10451377, “Rationally Designed Pyrimidine Compounds: Promising Novel Antibiotics for the Treatment of Staphylococcus aureus-Associated Bovine Mastitis” (Antibiotics, 2023).
# What was measured:
# [1] = tested on: guanine riboswitch-lacZ fusion construct (xpt-lacZ); assay: Riboswitch regulation assay (lacZ-gene reporter); format: cell-based, B. subtilis; settings: 64 µg/mL
# Source text: The novel pyrimidine compounds, especially PC206, display specificity and potency against some staphylococci but not the other bacterial genus (Table 1 and Table 2). Because they are structurally derived from PC1 and PC2, these novel antibiotic candidates are expected to have the same mode of action. […] To verify this hypothesis, a strain of B. subtilis with a guanine riboswitch-lacZ fusion construct (named xpt-lacZ) integrated in its chromosome was exposed to these new antimicrobials. […] Therefore, it is an adequate reporter species. The metabolization of substrate ONPG into colored ONP was normalized by the bacterial suspension absorbance at 600 nm (Miller units) and relativized to the untreated condition.
# β-galactosidase gene expression in the presence of the new pyrimidine analogs was studied, using an xpt-lacZ transcriptional fusion construct integrated in the genome of B. subtilis as previously described. Briefly, cultures were grown for 5 h at 35 °C in CAMHB, from an initial optical density of 0.05 at 600 nm (OD600), and then diluted 1:20 and in the presence of different concentrations of the compounds tested. Cultures were centrifuged for 10 min at 13,100 rpm, the supernatant was discarded, and pellets were suspended in a Z-buffer (NaH2PO4 40 mM, Na2HPO4 60 mM, MgSO4 1 mM, KCl 10 mM). Cultures OD600 were measured, and bacteria were then lysed with lysozyme (1 mg/mL) and β-mercaptoethanol 50 mM for 30 min. Lysates were centrifuged for 10 min at 13,100 rpm, and supernatants were incubated for 5 min at 30 °C with the substrate orthonitrophenyl-β-galactoside (ONPG; Sigma Aldrich). Reactions were stopped with Na2CO3 1M, supernatants OD420 were measured, and Miller units were calculated. A decrease in β-galactosidase activity indicated binding of the test compound to the riboswitch. Guanine and oxacillin were used as […] controls, respectively. The formula to measure Miller units is as follows: Millerunits=1000×OD420/t·v·OD600
# Here, t represents the time of incubation with ONPG, and v represents the volume of the reaction.
# S. chromogenes = assay: Susceptibility of isolate panel (MIC50, MIC90, range); format: cell-based
# Source text: (§1) Reference strains for this study (S. aureus ATCC 29213, ATCC 29740 [bovine mastitis strain Newbould], S. epidermidis ATCC 12228, E. coli ATCC 35695, E. faecalis ATCC 29212) were obtained from the American Type Culture Collection (ATCC, Rockville, MD). S. aureus strains CMRSA-10 and CMRSA-2 were obtained from the Laboratoire de santé publique du Québec (LSPQ, Sainte-Anne-de-Bellevue, QC, Canada) and are Canadian CA-MRSA USA-300 and HA-MRSA USA-100 clones, respectively. The strain E. coli imp4213 (lptD), used as a control in MIC assays, is a derivative of E. coli ATCC 35695 (E. coli MC4100) with an increased membrane permeability. […] Other MRSA strains used in this study are clinical isolates of human origin obtained from the microbiology laboratory of the Centre Hospitalier Universitaire de Sherbrooke (CHUS, Sherbrooke, QC, Canada). Bovine mastitis strains (S. aureus, S. chromogenes, S. haemolyticus, S. hominis, S. simulans) were obtained from the Canadian Bovine Mastitis and Milk Quality Research Network (CBRQMN, St-Hyacinthe, QC, Canada). Among these strains, S. aureus 2117 is a high producer of biofilm and was used in the biofilm-eradication assay. S. epidermidis isolates were provided by Centre de Recherche en Infectiologie (CRI) de Québec (Québec, QC, Canada).
# (§2) The antibacterial activity of the most promising compound, PC206, was also evaluated against larger groups of clinical isolates of human and animal origin. The MIC50 and MIC90 values represented the concentrations of drug required to inhibit the growth of 50% and 90% of the bacterial strains tested, respectively.
# S. epidermidis = assay: as above; format: cell-based; settings: S. epidermidis, 10 isolates
# Source text: as §1, §2
# [2] = tested on: Staphylococcus aureus ATCC 29213; assay: Broth microdilution MIC; settings: ATCC29213, read-out: Broth Microdilution MIC
smiles,measurement,setting,value
CCCCCCNc1cc(N)nc(N)n1 [PC206],"Miller units remaining, relative to the untreated condition",[1],35%
same,MIC90,S. chromogenes,128 µg/mL
same,MIC Range,"S. chromogenes; S. chromogenes, 5 isolates",16 to 128 µg/mL
same,MIC50,"S. chromogenes; S. chromogenes, 5 isolates, read-out: MIC50",32 µg/mL
same,MIC Range,S. epidermidis,2 to 16 µg/mL
same,MIC50,"S. epidermidis; Staphylococcus epidermidis, read-out: MIC50",4 µg/mL
same,MIC90,"S. epidermidis; Staphylococcus epidermidis, read-out: MIC90",8 µg/mL
same,MIC,[2],8 µg/mL
